For the assay, the system named is HBV DNA in HepG2.2.15 cells. Nature of the assay: HBV in vitro dot-blot hybridization test. The class given is cell-based, Hepatitis B virus. On the procedure:
• 1. Purpose of the test: • The content of HBV DNA in HepG2.2.15 cells was detected by dot-blot hybridization test to evaluate an inhibitory action of the compound on HBV with an EC50 value as an indicator. • 2. Experimental materials: • 2.1 Cell lines: HepG2.2.15 Cells • HepG2.2.15 cell culture media (DMEM/F12, Invitrogen-11330057; 10% serum Invitrogen-10099141; 100 units/mL Penicillin and 10 μg/mL Streptomycin, Invitrogen-15140122; 1% non-essential amino acid, Invitrogen-11140076; 2 mM L-GLUTAMINE, Invitrogen-25030081; 300 µg/ml Geneticin, Invitrogen-10131027 • 2.2 Reagents: • Trypsin (I Invitrogen-25300062) • DPBS (Hyclone-SH30028.01B) • DMSO (Sigma-D2650-100ML) • 96-well cell-culture plate (Corning-3599) • CO2 incubator (HERA-CELL-240) • 20×SSC (Bio-serve Co. Ltd) • Tris-HCl (Aldirch-154563-1KG) • NaOH (Sinopharm 10019718) • NaCl (Sinopharm 10019308) • Hybridization solution (Major BioTech Co. Ltd, IMMUNE GOLD-HYB-500) • DIG Wash and Block Buffer set (Roche-11585762001) • Anti-digoxigenin-AP, Fab fragments from sheep (Roche-11093274910) • 2.3 Materials and Instruments: • Positively-Charged Nylon Membrane (GE-RPN2250B) • Transfer Membrane Instrument (Bio-Rad, 170-6545) • Hybridization Oven (HL-2000 Hybrilinker) • 3. Testing steps and Methods: • 3.1 HepG2.2.15 cells (4×10^4 cells/well) were planted into a 96-well plate, and at 37° C., 5% CO2 cultured overnight. • 3.2 On Day 2, the compounds were diluted in totally 6 concentrations with a dilution gradient of five times. The compounds at different concentrations were added into the culture wells in duplicate. The final concentration of DMSO in the culture media was 1%. 1 μM GLS4 was used as 100% inhibition control; 1% DMSO as 0% inhibition control. • 3.3 On Day 5, replacing with the fresh culture media containing the compound was performed. • 3.4 On Day 8 and Day 9, the culture media in the culture wells was removed, and the cells were harvested for dot-blot hybridization. • The lysate was added into a culture well, and at 37° C. incubating for half an hour to disintegrate cells; the supernatant was obtained by centrifugation and transferred into a new microplate; a denaturation solution was added, after sufficient mixing the denatured sample was transferred and imprinted onto a Nylon membrane, the nucleic acid was fixed onto the membrane by UV cross-linking. • Pre-hybridization: the membrane was incubated at 60° C. in a hybridization solution for 1 hour. • Hybridization: heating the denatured digoxin-labelled HBV DNA probe and incubating at 60° C. overnight. • Membrane Washing: performing high strigency washing twice, low strigency washing for 3 times. • Blocking: incubating the membrane at room temperature in a blocking solution for 30-60 minutes. • Hybridization: diluting the Antibody Solution with the blocking solution, in which the membrane was placed and incubated at room temperature for 30-60 minutes. • Developing: washing the membrane in a Detection Buffer for 5 minutes, followed by adding a developing solution, pressing and exposing. • The photos was saved in tiff format, and a gray value of the dot was quantified with quantity one software. • 3.5 Data Analysis: • 3.5.1 The inhibition percentage was calculated: % Inh.=[1−(sample dot gray value−1 μM GLS4 dot gray value 1)/(DMSO control dot gray value−1 μM GLS4 dot gray value 1)]×100. • 3.5.2 Calculating EC50: the concentration of the compound for 50% inhibition of HBV (EC50) was calculated by using GraphPad Prism Software. • 4.

[1] abbreviates: Hepatitis B virus, HepG2.2.15, dot-blot hybridization assay, read-out: Concentration for 50% inhibition of HBV (EC50)value.
Setting [2] is: Hepatitis B virus, HepG2.2.15, summary list of target compounds, Examples 1-165 (same as Table 2), read-out: BIOACTIVITY (inhibitory actions on HBV DNA, EC50).

Where two headings read alike, the source gives them in different places.

On to `CCOC(=O)C1=C2C[C@@H](NS(=O)(=O)C(C)C)CN2C(c2nccs2)=N[C@H]1c1ccc(F)cc1Br` [Example 116], for which the EC50 runs as follows: under setting [1], < 100 nM; under setting [2], < 100 nM.

Consider `CCOC(=O)C1=C2C[C@@H](C(N)=O)CN2C(c2nccs2)=NC1c1ccc(F)cc1Br` (mixture of isomers) [Example 29], for which, where the note is “summary list of target compounds, Examples 1-165 (same as Table 2), read-out: BIOACTIVITY (inhibitory actions on HBV DNA, EC50)”, the EC50 fell in the range of 100 to 500 nM. On to `CCOC(=O)C1=C2CN(C(=O)C3(C)COC3)CCN2C(c2nccs2)=N[C@H]1c1ccc(F)cc1Br` [Example 90], for which the EC50 reads like this: under setting [1], 100 to 500 nM; under setting [2], 100 to 500 nM.

On to `COC(=O)C1=C2C[C@H](NS(=O)(=O)C(F)(F)F)CN2C(c2nccs2)=N[C@H]1c1ccc(F)cc1Cl` [Example 155], for which the EC50 reads like this: under setting [1], < 100 nM; under setting [2], < 100 nM.

For the molecule `CCOC(=O)C1=C2CN(C(=O)C3CC3)CCN2C(c2nccs2)=N[C@H]1c1ccc(F)cc1Br` [Example 91], the EC50 runs as follows: under setting [1], 100 to 500 nM; under setting [2], 100 to 500 nM.

Consider `CCOC(=O)C1=C2C[C@H](NS(C)(=O)=O)CN2C(c2nccs2)=N[C@@H]1c1ccc(F)cc1Cl` [Example 141], for which the EC50 by setting is: under setting [1], 500 to 1000 nM; under setting [2], 500 to 1000 nM. `CCOC(=O)C1=C2CCCN2C(c2nccs2)=NC1c1ccc(F)cc1Br` (racemic) [Example 4]: the EC50 was in the range of 100 to 500 nM under setting [1] and 100 to 500 nM under setting [2]. `CCOC(=O)C1=C2CCCN2C(c2nccs2)=N[C@H]1c1ccc(F)cc1Br` [Example 5]: the EC50 under setting [1] lay within 100 to 500 nM and the EC50 under setting [2] lay in the range of 100 to 500 nM. For the molecule `CCOC(=O)C1=C2C[C@H](NS(C)(=O)=O)CN2C(c2nccs2)=N[C@H]1c1ccc(F)cc1` [Example 145], the EC50 by setting is: under setting [1], 500 to 1000 nM; under setting [2], 500 to 1000 nM. As to `CCOC(=O)C1=C2C[C@@H](CO)CN2C(c2nccs2)=NC1c1ccc(F)cc1Br` (mixture of isomers) [Example 8], the EC50 fell in the range of 100 to 500 nM under setting [1] and 100 to 500 nM under setting [2]. For the molecule `CCOC(=O)C1=C2C[C@@H](CN3CCOCC3)CN2C(c2nccs2)=NC1c1ccc(F)cc1Br` (mixture of isomers) [Example 17], the EC50 under setting [1] was 1000 to 5000 nM and the EC50 under setting [2] lay in the range of 1000 to 5000 nM.

As for `COC(=O)N[C@H]1CC2=C(C(=O)OC)[C@H](c3ccc(F)cc3Cl)N=C(c3nccs3)N2C1` [Example 163], the EC50 was < 100 nM under setting [1] and < 100 nM under setting [2]. As to `CCOC(=O)C1=C2[C@@H](C(N)=O)CCN2C(c2nccs2)=N[C@H]1c1ccc(F)cc1Cl` (racemic) [Example 3], the EC50 was 100 to 500 nM under setting [1] and 100 to 500 nM under setting [2]. For the molecule `CCOC(=O)C1=C2C[C@H](C#N)CN2C(c2nccs2)=N[C@H]1c1ccc(F)cc1Cl` [Example 24], the EC50 under setting [1] is 500 to 1000 nM and the EC50 under setting [2] lay in the range of 500 to 1000 nM. In the case of `CCOC(=O)C1=C2C[C@H](NS(=O)(=O)C3CC3)CN2C(c2nccs2)=N[C@H]1c1ccc(F)cc1Br` [Example 62], the EC50 reads like this: under setting [1], < 100 nM; under setting [2], < 100 nM.

As for `CCOC(=O)C1=C2CN(C(=O)NC)CCN2C(c2nccs2)=N[C@H]1c1ccc(F)cc1Br` [Example 88], the EC50 runs as follows: under setting [1], 500 to 1000 nM; under setting [2], 500 to 1000 nM. In the case of `CCS(=O)(=O)N[C@H]1CC2=C(C(=O)OC)[C@H](c3ccc(F)cc3Cl)N=C(c3nccs3)N2C1` [Example 158], the EC50 is < 100 nM under setting [1] and < 100 nM under setting [2]. Turning to `CCOC(=O)C1=C2CC(NS(C)(=O)=O)CN2C(c2nccs2)=N[C@H]1c1ccc(F)cc1Br` (mixture of isomers) [Example 57], the EC50 reads like this: under setting [1], < 100 nM; under setting [2], < 100 nM. As for `CCOC(=O)C1=C2C[C@H](NS(=O)(=O)C3COC3)CN2C(c2nccs2)=N[C@H]1c1ccc(F)cc1Cl` [Example 144], the EC50 was < 100 nM under setting [1] and < 100 nM under setting [2].

`CCOC(=O)C1=C2C[C@H](NS(=O)(=O)C(F)(F)F)CN2C(c2nccs2)=N[C@H]1c1ccc(F)cc1Cl` [Example 153]: the EC50 is, setting by setting: under setting [1], < 100 nM; under setting [2], < 100 nM. Turning to `CCOC(=O)C1=C2C[C@@H](CS(C)(=O)=O)CN2C(c2nccs2)=N[C@H]1c1ccc(F)cc1Br` [Example 113], the EC50 was 100 to 500 nM under setting [1] and 100 to 500 nM under setting [2]. For the molecule `CCOC(=O)C1=C2C[C@H](NS(C)(=O)=O)CN2C(c2nccs2)=N[C@H]1c1ccc(Cl)cc1F` [Example 150], the EC50 by setting is: under setting [1], 100 to 500 nM; under setting [2], 100 to 500 nM. As to `CCOC(=O)C1=C2C[C@@H](NS(=O)(=O)NC)CN2C(c2nccs2)=N[C@H]1c1ccc(F)cc1Br` [Example 55], the EC50 by setting is: under setting [1], < 100 nM; under setting [2], < 100 nM. As to `CCOC(=O)C1=C2CC(NS(C)(=O)=O)CN2C(c2nccs2)=N[C@H]1c1ccc(F)cc1Br` (stereo partly drawn) [Example 58], the EC50 is, setting by setting: under setting [1], < 100 nM; under setting [2], < 100 nM.

For the molecule `CCOC(=O)C1=C2CN(CC(=O)OC)C(=O)CN2C(c2nccs2)=N[C@H]1c1ccc(F)cc1Br` [Example 106], the EC50 fell in the range of 1000 to 5000 nM under setting [1] and 1000 to 5000 nM under setting [2]. `COC(=O)C1=C2C[C@H](NS(C)(=O)=O)CN2C(c2nccs2)=N[C@H]1c1ccc(F)cc1Cl` [Example 149]: the EC50 was < 100 nM under setting [1] and < 100 nM under setting [2].

For the molecule `CCOC(=O)C1=C2COCCN2C(c2nccs2)=NC1c1ccc(F)cc1Br` (racemic) [Example 110], the EC50 lay in the range of 1000 to 5000 nM under setting [1] and 1000 to 5000 nM under setting [2].

Take `CCOC(=O)CN(C)C[C@@H]1CC2=C(C(=O)OCC)[C@H](c3ccc(F)cc3Br)N=C(c3nccs3)N2C1` [Example 19]: the EC50 runs as follows: under setting [1], 1000 to 5000 nM; under setting [2], 1000 to 5000 nM. Regarding `CCOC(=O)C1=C2CN(C)C(=O)CN2C(c2nccs2)=NC1c1ccc(F)cc1Br` (racemic) [Example 105], the EC50 was in the range of 500 to 1000 nM under setting [1] and 500 to 1000 nM under setting [2]. Consider `CCOC(=O)C1=C2C[C@@H](CN3CCC[C@H]3C(=O)OC)CN2C(c2nccs2)=N[C@H]1c1ccc(F)cc1Br` [Example 21], for which the EC50 lay within 1000 to 5000 nM under setting [1] and 1000 to 5000 nM under setting [2]. For `CCOC(=O)C1=C2C[C@H](O)CN2C(c2nccs2)=N[C@H]1c1ccc(F)cc1Cl` [Example 34], the EC50 under setting [1] was in the range of 100 to 500 nM and the EC50 under setting [2] is 100 to 500 nM. As for `CCOC(=O)C1=C2C[C@H](NS(C)(=O)=O)CN2C(c2nncs2)=N[C@H]1c1ccc(F)cc1Cl` [Example 154], the EC50 lay in the range of 100 to 500 nM under setting [1] and 100 to 500 nM under setting [2]. Turning to `CCOC(=O)C1=C2CCN2C(c2nccs2)=NC1c1ccc(F)cc1Br` (racemic) [Example 112], the EC50 was in the range of 1000 to 5000 nM under setting [1] and 1000 to 5000 nM under setting [2]. For `CCOC(=O)C1=C2CCCN2C(c2nccs2)=NC1c1cc(Cl)sc1Cl` (racemic) [Example 74], the EC50 by setting is: under setting [1], 1000 to 5000 nM; under setting [2], 1000 to 5000 nM. Take `CCOC(=O)C1=C2CC(NC(C)=O)CN2C(c2nccs2)=N[C@H]1c1ccc(F)cc1Br` (mixture of isomers) [Example 48]: the EC50 reads like this: under setting [1], 100 to 500 nM; under setting [2], 100 to 500 nM. Consider `CCOC(=O)C1=C2CC(NC(=O)OC(C)C)CN2C(c2nccs2)=N[C@H]1c1ccc(F)cc1Br` (mixture of isomers) [Example 45], for which the EC50 runs as follows: under setting [1], < 100 nM; under setting [2], < 100 nM. Regarding `CCOC(=O)C1=C2C[C@H](NS(=O)(=O)C(F)(F)F)CN2C(c2nccs2)=N[C@H]1c1ccc(F)cc1Br` [Example 64], the EC50 reads like this: under setting [1], 100 to 500 nM; under setting [2], 100 to 500 nM. For `CCOC(=O)C1=C2CC(NS(=O)(=O)C3CC3)CN2C(c2nccs2)=N[C@H]1c1ccc(F)cc1Br` (mixture of isomers) [Example 60], the EC50 was < 100 nM under setting [1] and < 100 nM under setting [2].
